From the supplement of paper PMC4858399

Key:
Conditions in all cases: exposure time 48 h
[1] = tested on: Caenorhabditis elegans N2; test: AC50 for larval growth inhibition (Hill fit); higher = less potent
Outline: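 Worms were synchronised C. elegans N2 L1 larvae, 50 per well of a 96-well plate, kept 48 h at 20°C in K-medium with killed OP50, 1% DMSO and 0.5–200 µM chemical. Size was taken as COPAS Biosort extinction, log-transformed and averaged per well, using only wells with at least 10 worms. AC50 was estimated by a constrained Hill fit with weighted genetic-algorithm regression; values outside the range are censored.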

[2] = tested on: Caenorhabditis elegans N2; test: lowest effective concentration for larval growth inhibition (size below effect threshold); higher = less potent
Outline: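 Worm size was taken as per-worm extinction on the Biosort, log-transformed and turned into well means. The larvae (C. elegans N2, L1 stage, 50 per 96-well) had spent 48 h at 20°C in K-medium with killed bacteria, 1% DMSO and 0.5, 1, 5, 10, 50, 100 or 200 µM chemical. The lowest effective concentration marks the first dose where the plate-adjusted mean size drops under a cutoff and remains under it at every higher dose; the cutoff is 5.665.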

[3] = tested on: Caenorhabditis elegans N2; test: mean nematode size ln(EXT) after 48 h, plate-adjusted (DMSO control set to 6) (ln(EXT), control-adjusted); higher = larger nematodes / less growth inhibition
Outline: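 Synchronised C. elegans N2 L1 larvae (50 per well, 4–6 wells per treatment) were grown for 48 h at 20°C in K-medium with killed OP50, 1% DMSO and 0.5–200 µM chemical. The Biosort measured each worm's extinction, and debris was removed by a growth model. Values were natural-logged and averaged per well. Mean size was then plate-adjusted by subtracting the vehicle control mean and adding 6.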

Row | SMILES | AC50 for larval growth inhibition [1] [µM] | lowest effective concentration [2] [µM] | mean nematode size ln(EXT) (ln) ([3]; 0.5 µM) | mean nematode size ln(EXT) (ln) ([3]; 1 µM) | mean nematode size ln(EXT) (ln) ([3]; 5 µM) | mean nematode size ln(EXT) (ln) ([3]; 10 µM) | mean nematode size ln(EXT) (ln) ([3]; 50 µM) | mean nematode size ln(EXT) (ln) ([3]; 100 µM) | mean nematode size ln(EXT) (ln) ([3]; 200 µM)
1 | CCOC(=O)C(C)Oc1ccc(Oc2cnc3cc(Cl)ccc3n2)cc1 (centres undefined) [Quizalofop-ethyl] | 84.1 | 50 | 5.77 | 5.9 | 5.82 | 5.91 | 5.33 | 4.78 | 4.4
2 | CCCCCCCCOC(=O)c1ccc(C(=O)OCCCCCCCC)c(C(=O)OCCCCCCCC)c1 [Tri (n-octyl) Trimellitate] | > 200 | 200 | 5.86 | 5.93 | 5.95 | 5.85 | 5.91 | 5.92 | 5.64
3 | C#CCOC(=O)[C@@H](C)Oc1ccc(Oc2ncc(Cl)cc2F)cc1 [Clodinafop-propargyl] | 106 | 200 | 5.98 | 5.9 | 6.05 | 5.94 | 6.15 | 5.84 | 5.14
4 | Nc1ccc(Cl)cc1N [4-Chloro-o-phenylenediamine] | 39 | 50 | 5.89 | 5.85 | 5.91 | 5.85 | 5.36 | 5.03 | 5.01
5 | Cc1c2ccccc2c(C)c2c1ccc1ccccc12 [7,12-Dimethylbenz(a)anthracene] | 110 | 5 | 6.05 | 5.87 | 5.53 | 5.48 | 5.02 | 4.89 | 4
6 | CNC(=O)N(C)c1nnc(C(C)(C)C)s1 [Tebuthiuron] | 129 | 200 | 5.83 | 5.93 | 5.89 | 5.93 | 5.95 | 5.92 | 5.44
7 | c1ccc2c(c1)-c1cccc3cccc-2c13 [Fluoranthene] | 9.33 | 5 | 5.79 | 5.87 | 5.65 | 5.05 | 4.05 | 3.8 | 4.82
8 | CC(C)OC(=O)Nc1cccc(Cl)c1 [Chlorpropham] | 60.7 | 100 | 5.75 | 5.77 | 5.9 | 5.95 | 5.82 | 4.79 | 4.32
9 | CC(C)(c1ccccc1)c1ccc(O)c(C(C)(C)c2ccccc2)c1 [2,4-Bis(alpha,alpha-dimethylbenzyl)phenol] | 58.7 | 10 | 6 | 5.67 | 5.74 | 5.45 | 4.67 | 4.3 | 3.8
10 | Nn1cnnc1 [4-Amino-4H-1,2,4-triazole] | > 200 | 200 | 5.81 | 5.85 | 5.83 | 5.8 | 5.57 | 5.78 | 5.36
11 | O=C=NCCCCCCN=C=O [1,6-Diisocyanatohexane] | > 200 | 200 | 5.82 | 5.86 | 5.84 | 5.84 | 5.94 | 5.93 | 5.66
12 | O=C(NO)C1(NS(=O)(=O)c2ccc(Oc3ccc(F)cc3)cc2)CCOCC1 | > 200 | 200 | 5.72 | 6.03 | 5.84 | 5.9 | 5.89 | 5.71 | 5.12
13 | O=C(c1ccccc1)c1ccccc1 [Benzophenone] | > 200 | 100 | 5.86 | 6.01 | 5.94 | 5.89 | 5.79 | 5.66 | 4.65
14 | CCCCCCCCCCCCCO [1-Tridecanol] | 15.4 | 5 | 5.9 | 5.76 | 5.58 | 5.34 | 3.57 | 3.5 | 3.54
15 | CCOP(=S)(OCC)Oc1nc(Cl)c(Cl)cc1Cl [Chlorpyrifos] | 2.28 | ≤ 0.5 | 5.55 | 5.06 | 4.29 | 3.42 | 3.29 | 3.43 | 3.06
16 | CCOP(=O)(OCC)Oc1nc(Cl)c(Cl)cc1Cl [Chlorpyrifos oxon] | 1.24 | ≤ 0.5 | 4.98 | 4.42 | 4.26 | 4.05 | 3.47 | 3.24 | 3.15
17 | CCOc1ccc2c(c1)C(C)=CC(C)(C)N2 [Ethoxyquin] | > 200 | 100 | 5.78 | 5.74 | 5.77 | 5.78 | 5.71 | 5.61 | 5.17
18 | ClC1(Cl)C2(Cl)C3(Cl)C4(Cl)C(Cl)(Cl)C5(Cl)C3(Cl)C1(Cl)C5(Cl)C24Cl (centres undefined) [Mirex] | > 200 | 50 | 5.34 | 5.5 | 5.57 | 6.06 | 5.56 | 5.51 | 5.59
19 | Oc1ccc2c(c1)-c1ccccc1C2 [3-Hydroxyfluorene] | 97.8 | 50 | 5.81 | 5.96 | 5.84 | 5.97 | 5.6 | 4.66 | 3.77
20 | CCCCCCCCCCCCCCO [1-Tetradecanol] | 19.7 | 10 | 5.94 | 5.92 | 5.87 | 5.61 | 3.67 | 3.57 | 3.42
21 | COP(=S)(OC)Oc1ccc([N+](=O)[O-])cc1 [Parathion-methyl] | 15.1 | 5 | 5.71 | 5.8 | 5.52 | 5.25 | 3.72 | 3.66 | 3.7
22 | Cc1ccc(C)c(O)c1C [2,3,6-Trimethylphenol] | > 200 | 200 | 5.88 | 6.02 | 5.94 | 5.93 | 5.93 | 5.9 | 5.65
23 | c1ccc(/N=N/c2ccccc2)cc1 [Azobenzene] | 91.6 | 10 | 5.73 | 5.67 | 5.67 | 5.61 | 5.21 | 4.48 | 3.5

Row | SMILES | AC50 for larval growth inhibition [1] [µM] | lowest effective concentration [2] [µM] | mean nematode size ln(EXT) (ln) ([3]; 0.5 µM) | mean nematode size ln(EXT) (ln) ([3]; 1 µM) | mean nematode size ln(EXT) (ln) ([3]; 5 µM) | mean nematode size ln(EXT) (ln) ([3]; 10 µM) | mean nematode size ln(EXT) (ln) ([3]; 50 µM) | mean nematode size ln(EXT) (ln) ([3]; 100 µM) | mean nematode size ln(EXT) (ln) ([3]; 200 µM)
24 | CCOP(=S)(OCC)Oc1ccc([N+](=O)[O-])cc1 [Parathion] | 13.4 | ≤ 0.5 | 5.59 | 5.66 | 5.54 | 5.03 | 3.46 | 3.63 | 3.36
25 | CC(C)=CCCC(C)CCO (centres undefined) [Citronellol] | > 200 | 200 | 5.82 | 5.87 | 5.92 | 5.78 | 5.86 | 5.73 | 5.6
26 | O=C(O)CN(CC(=O)O)CC(=O)O [Nitrilotriacetic acid] | > 200 | 200 | 5.78 | 5.83 | 5.87 | 5.88 | 5.91 | 5.88 | 5.21
27 | CC(Oc1ccc(Cl)cc1Cl)C(=O)O (centres undefined) [Dichlorprop] | 106 | 200 | 5.91 | 5.93 | 5.86 | 6.06 | 6.04 | 5.88 | 5.44
28 | O=C(CCl)c1ccccc1 [2-Chloroacetophenone] | > 200 | 200 | 5.82 | 5.84 | 5.82 | 5.48 | 5.82 | 5.8 | 4.95
29 | O=C(N[C@@H](Cc1ccccc1)[C@@H](O)C(=O)N1C[C@@H](O)[C@@H](O)C1)c1cc2cc(Cl)ccc2[nH]1 [Ingliforib] | > 200 | 100 | 5.94 | 5.79 | 5.75 | 5.85 | 5.79 | 5.46 | 5.44
30 | c1ccc2[nH]c(-c3cscn3)nc2c1 [Thiabendazole] | > 200 | 200 | 6.04 | 6.23 | 6.02 | 5.98 | 5.78 | 5.93 | 4.91
31 | Cn1cc(-c2ccccc2)c(=O)c(-c2cccc(C(F)(F)F)c2)c1 [Fluridone] | 52 | 100 | 6 | 5.95 | 5.96 | 5.88 | 5.69 | 4.25 | 5.6
32 | O=c1[nH]c2ccc([S+]([O-])CCN3CCC(Cc4ccc(F)cc4)CC3)cc2o1 (centres undefined) [Besonprodil] | > 200 | 200 | 5.75 | 6 | 5.87 | 5.9 | 5.87 | 5.82 | 5.31
33 | OC(c1ccc(Cl)cc1)(c1ccc(Cl)cc1)C(Cl)(Cl)Cl [Dicofol] | 10.8 | ≤ 0.5 | 5.64 | 5.63 | 5.3 | 4.39 | 3.83 | 3.61 | 3.35
34 | N#Cc1ccc(N(CC(N)=O)CC(F)(F)F)cc1C(F)(F)F | > 200 | 200 | 5.89 | 5.86 | 5.91 | 6 | 5.95 | 5.91 | 5.47
35 | CCCCCCCCOC(=O)c1cc(O)c(O)c(O)c1 [Octyl gallate] | 55.1 | 50 | 5.79 | 5.87 | 5.84 | 5.88 | 4.63 | 4.47 | 3.77
36 | CO[C@H]1/C=C/O[C@@]2(C)Oc3c(C)c(O)c4c(O)c(c(/C=N/N5CCN(C)CC5)c(O)c4c3C2=O)NC(=O)/C(C)=C\C=C\[C@H](C)[C@H](O)[C@@H](C)[C@@H](O)[C@@H](C)[C@H](OC(C)=O)[C@@H]1C [Rifampicin] | > 200 | 200 | 5.96 | 5.92 | 5.94 | 5.98 | 5.84 | 5.84 | 5.56
37 | c1ccc2c(c1)ccc1ccccc12 [Phenanthrene] | 5.56 | 10 | 5.95 | 5.89 | 5.84 | 3.51 | 3.73 | 4.1 | 3.29
38 | C#CCOS(=O)OC1CCCCC1Oc1ccc(C(C)(C)C)cc1 (centres undefined) [Propargite] | 150 | 200 | 5.95 | 6.19 | 5.99 | 6.05 | 5.82 | 5.88 | 3.35
39 | OCCO [Ethylene glycol] | > 200 | 100 | 5.79 | 5.77 | 5.77 | 5.78 | 5.72 | 5.63 | 5.65
40 | Clc1cccc(Cl)c1Cl [1,2,3-Trichlorobenzene] | 122 | 200 | 6.08 | 6.04 | 6.06 | 6.07 | 6.02 | 5.98 | 3.55
41 | CCOc1ccc(C(C)(C)COCc2cccc(Oc3ccccc3)c2)cc1 [Etofenprox] | 52.2 | 100 | 5.87 | 5.88 | 5.91 | 5.71 | 5.81 | 5.39 | 5.47
42 | COc1ccc(S(=O)(=O)N2C(=O)[C@@](c3ccccc3OC)(N3C[C@H](O)C[C@H]3C(=O)N(C)C)c3cc(Cl)ccc32)c(OC)c1 [Nelivaptan] | > 200 | 100 | 5.95 | 5.76 | 5.72 | 5.83 | 5.7 | 5.48 | 5.44
43 | Cc1cccc(N)c1N [3-Methylbenzene-1,2-diamine] | > 200 | 200 | 6.01 | 5.93 | 5.87 | 5.79 | 5.78 | 5.79 | 5.05
44 | OCC(O)CO [Glycerol] | > 200 | 200 | 5.83 | 5.87 | 5.84 | 5.75 | 5.87 | 5.87 | 5.66
45 | CC1=C2C[C@H]3[C@@H](CC=C4C[C@@H](O)CC[C@@]43C)[C@@H]2CC[C@]12O[C@@H]1C[C@H](C)CN[C@H]1[C@H]2C [Cyclopamine] | > 200 | 200 | 5.89 | 5.89 | 5.9 | 5.85 | 5.9 | 5.8 | 5.39
46 | CC(C)(C)c1cc(O)ccc1O [tert-Butylhydroquinone] | > 200 | 50 | 5.85 | 5.85 | 5.96 | 5.81 | 5.62 | 5.41 | 5.03
